Consider 2 molecules from paper PMC8587515, “Cytotoxic and Anti-Inflammatory Activities of Dihydroisocoumarin and Xanthone Derivatives from Garcinia picrorhiza” (Molecules, 2021).

Like-named read-outs stand apart in the source and are kept apart here. Where only a bound is given, the exact number is not on record here.

Assay [1] concerns the target T1, COX-1 (purified PGHS-1 from ram seminal vesicles) (Ovis aries, UniProt P05979).
T1 construct: Purified PGHS-1 from ram seminal vesicles for COX-1; purchased Cayman Chemical Co., Ann Arbor, MI, USA; host or cells: ram seminal vesicles (tissue-purified)
T1 sequence (P05979 25-600): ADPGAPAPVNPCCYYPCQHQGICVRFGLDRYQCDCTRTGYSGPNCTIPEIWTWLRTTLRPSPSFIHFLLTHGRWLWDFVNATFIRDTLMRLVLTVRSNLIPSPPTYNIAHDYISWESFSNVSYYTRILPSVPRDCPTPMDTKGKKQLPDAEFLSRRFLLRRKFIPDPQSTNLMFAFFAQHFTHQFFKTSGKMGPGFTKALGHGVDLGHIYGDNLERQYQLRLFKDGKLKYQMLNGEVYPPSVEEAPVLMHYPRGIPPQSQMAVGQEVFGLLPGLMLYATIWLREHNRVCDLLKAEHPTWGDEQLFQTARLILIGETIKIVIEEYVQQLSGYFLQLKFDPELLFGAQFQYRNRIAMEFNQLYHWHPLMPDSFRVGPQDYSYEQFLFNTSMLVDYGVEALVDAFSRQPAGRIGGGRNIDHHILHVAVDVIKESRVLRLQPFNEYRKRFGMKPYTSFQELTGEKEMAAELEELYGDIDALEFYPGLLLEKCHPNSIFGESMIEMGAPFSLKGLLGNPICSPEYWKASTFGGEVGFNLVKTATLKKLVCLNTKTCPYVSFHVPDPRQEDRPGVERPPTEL
Description: COX-1 enzyme inhibition assay (PGE2 ELISA). Type of assay: biochemical. The note with it: mean ± SD (n = 4). As for the experimental part: The anti-inflammatory effects of the isolated compounds were also screened on COX-1 and COX-2 enzymes inhibition at a final concentration of 20 µM.
Purified PGHS-1 from ram seminal vesicles for COX-1 and human recombinant PGHS-2 for COX-2 (Cayman Chemical Co., Ann Arbor, MI, USA) were used for the COX inhibition assays. Experiments were performed in a 96-well plate format, as previously described. Briefly, the incubation mixture contained 180 µL of 0.1 M TRIS/HCl-buffer pH 8.0 (Roth, Karlsruhe, Germany), 50 µM Na2EDTA (only for COX-2, Titriplex III, Merck, Darmstadt, Germany), 18 mM L-epinepherine bitartrate (Fluka, Buchs, Switzerland), 5 µM porcine hematin (MP Biomedicals LLC, Solon, OH, USA), and COX-1 or COX-2 enzymes (0.2 U/well). Ten microliters of tested compounds (dissolved in DMSO with a final concentration of 20 µM) was added and the mixture was pre-incubated for 5 min at room temperature. Thereafter, 10 µL of 5 µM arachidonic acid (Ann Arbor, Michigan USA) was added to the mixture and incubated for 20 min at 37 °C. The reaction was subsequently stopped by adding 10 µL of 10% (v/v) formic acid. The concentration of PGE2 generated in the reaction was quantitatively measured by a competitive PGE2 ELISA kit (Enzo Life Sciences Inc., Farmingdale, NY, USA) according to the manufacturer’s protocol and previous procedure. The absorbance at 405 nm was measured using a Hidex Sense Microplate Reader (Hidex, Turku, Finland). […] The assays were performed in duplicates and repeated in two independent experiments.

Assay [2] relates to HeLa S3 (human cervical carcinoma). Description: MTT cytotoxic activity assay, HeLa S3. Type of assay: cell-based. The note with it: 72 h, mean ± SEM of three replicates. As for the experimental part: (§1) The cytotoxic activity of the isolated compounds was evaluated using the MTT viability assay with doxorubicin as the positive control and the results are presented in Table 2.
(§2) The MTT colorimetric method was performed to evaluate cytotoxic activity of the isolated compounds against human epidermoid carcinoma (KB; ATCC CCL17), human cervical carcinoma (HeLa S3; ATCC CCL2-2), human colon adenocarcinoma (HT-29; ATCC HTB-38), human breast adenocarcinoma (MCF-7; ATCC HTB-22), and human hepatocellular carcinoma (Hep G2; ATCC HB-8065) cell lines according to the previous method. The cancer cells were cultured in MEM containing 10% fetal bovine serum in the presence of 100 U/mL penicillin and 100 μg/mL streptomycin sulphate (Gibco, Rockville, MD, USA), seeded in a 96-well plate (3000 cells/well), and pre-incubated at 37 °C for 24 h in a 5% CO2 humidified atmosphere. The tested compounds with serial concentrations (0.3–100 μM) were added and incubated for a further 72 h in the same condition. At the end of treatment, 20 µL of MTT solution (5 mg/mL in PBS, Sigma, St. Louis, MI, USA) was added to each well and further incubated for 3 h. After centrifugation at 1400 rpm for 5 min at 4 °C, the supernatant was decanted and DMSO (100 µL/well) was added to allow formazan product solubilization, which was subsequently measured by a microplate reader (Tecan Trading AG, Switzerland) at wavelength 550 nm. Control cells were treated with 0.1% DMSO. Doxorubicin (tested concentrations: 0.01–3.0 μM, Sigma) was used as the positive control. The results are expressed as the mean values of three replicates for three independent experiments. IC50 values were determined by graphical analysis using SigmaPlot 10 (Systat Software Inc., San Jose, CA, USA), obtained by plotting the cell viability percentage versus sample concentration.
(Formazan colour is commonly taken as a measure of viable cells.)

The subject of assay [3] is KB (human epidermoid carcinoma). Description: MTT cytotoxic activity assay, KB. The note with it: 72 h, mean ± SEM of three replicates. Type of assay: cell-based. As for the experimental part: as §1, §2
The test system of assay [4] is HT-29 (human colon adenocarcinoma). Description: MTT cytotoxic activity assay, HT-29. Type of assay: cell-based. The conditions noted are these: 72 h, mean ± SEM of three replicates. As for the experimental part:
as §1
The MTT colorimetric method was performed to evaluate cytotoxic activity of the isolated compounds against human epidermoid carcinoma (KB; ATCC CCL17), human cervical carcinoma (HeLa S3; ATCC CCL2-2), human colon adenocarcinoma (HT-29; ATCC HTB-38), human breast adenocarcinoma (MCF-7; ATCC HTB-22), and human hepatocellular carcinoma (Hep G2; ATCC HB-8065) cell lines according to the previous method. […] After centrifugation at 1400 rpm for 5 min at 4 °C, the supernatant was decanted and DMSO (100 µL/well) was added to allow formazan product solubilization, which was subsequently measured by a microplate reader (Tecan Trading AG, Switzerland) at wavelength 550 nm. […] The results are expressed as the mean values of three replicates for three independent experiments. IC50 values were determined by graphical analysis using SigmaPlot 10 (Systat Software Inc., San Jose, CA, USA), obtained by plotting the cell viability percentage versus sample concentration.

For assay [5] the test system is unchanged. Also on record: method as in PMID 30153471, PMID 33999337; key to IC50 ± SEM, HT-29: IC50 ≤ 10 µM = good cytotoxicity; 10 µM < IC50 ≤ 30 µM = weak cytotoxicity; inactive (IC50 > 30 µM). The conditions noted are these: MTT; results based on previous work; cited from earlier work.
The subject of assay [6] is four cancer cells (KB, HeLa S3, MCF-7, and Hep G2). The note with it: HeLa S3, MCF-7, Hep G2, earlier studies, read-out: IC50 values against four cancer cells; cited from earlier work.
Assay [7] has as its system MCF-7 (human breast adenocarcinoma). Set-up: method as in PMID 30153471, PMID 33999337. The conditions noted are these: MTT; results based on previous work; read-out: IC50 ± SEM, MCF-7; cited from earlier work.
In assay [8] the test system is Hep G2 (human hepatocellular carcinoma). Also on record: method as in PMID 30153471, PMID 33999337. The note with it: MTT; results based on previous work; read-out: IC50 ± SEM, Hep G2; cited from earlier work.
Assay [9] relates to KB (human epidermoid carcinoma). Also on record: method as in PMID 30153471, PMID 33999337. The note with it: MTT; results based on previous work; read-out: IC50 ± SEM, KB; cited from earlier work.

On to `C[C@H]1Oc2c(c(O)c3c(=O)c4ccc(O)c(O)c4oc3c2CCC(C)(C)O)C1(C)C` [Compound 4, gerontoxanthone C hydrate], for which the inhibition (usually the share of the control response that was lost under treatment) at 20 µM in assay [1] worked out at 32.4 ± 7.9%. Moreover, the values for the IC50 in [2], in assay [3] and in [4] were 5.6 ± 0.1 µM, 7.5 ± 0.8 µM and 20.3 ± 0.6 µM, respectively.
With `C[C@@H]1Oc2cc(O)c3c(=O)c4ccc(O)c(O)c4oc3c2C1(C)C` [Compound 7, 2-deprenylrheediaxanthone B], in assay [5], the “IC50 ± SEM, HT-29” value is “inactive”. The same molecule displayed an inhibition at 20 µM in assay [1] of 15.4 ± 7.5%. The IC50 (in general, the concentration at which inhibition is half-maximal) in [6] was less than 10 µM; in assay [7], 6.5 ± 0.2 µM; in [8] it was 10 ± 0.2 µM; in assay [9], 5.1 ± 0.4 µM.
